# Measurements reported in ChEMBL document CHEMBL5537169, “Structure-Activity Relationships and Discovery of (S)-6-Isopropyl-2-methoxy-3-(3-methoxypropoxy)-10-oxo-5,10-dihydro-6H-pyrido[1,2-h][1,7]naphthyridine-9-carboxylic Acid (AB-452), a Novel Orally Available HBV RNA Destabilizer” (J Med Chem, 2024).
# The source made the active and inactive calls. The rule behind the calls is not given here.
# What was measured:
# [1] = Cardiotoxicity in Langendorff-perfused New Zealand White rabbit heart assessed as increase in QRS interval upto 10 uM incubated for 45 mins by ECG analysis; assay type: toxicity, tissue-based, Oryctolagus cuniculus; conditions: 0.75 h
# [2] = Cardiotoxicity in Langendorff-perfused New Zealand White rabbit heart assessed as increase in QT interval upto 10 uM incubated for 45 mins by ECG analysis; assay type: toxicity, tissue-based, Oryctolagus cuniculus; conditions: 0.75 h
# Hepatitis B virus [3] = assay: Antiviral activity against AAV-Hepatitis B virus infected in C57BL/6 mouse assessed as liver HBsAg level at 3 to 30 mg/kg,po administrated once daily for 7 days by enzyme-linked immunoassay; assay type: functional, organism-based; conditions: dose 3-30 mg/kg, time 7.0 day
# Hepatitis B virus [4] = assay: Antiviral activity against AAV-Hepatitis B virus infected in human Primary hepatocyte assessed as reduction in HBV DNA level measured after 16 days by ELISA; assay type: functional, organism-based; conditions: 384 h
# [5] = Apparent volume of distribution at steady state in CD-1 mouse at 10 mg/kg,po measured at 0.083 to 24 hrs post administration by LC-MS/MS analysis; assay type: ADME, organism-based; conditions: in vivo, time 0.083-24 hrs
# [6] = Tmax in CD-1 mouse at 10 mg/kg,po measured at 0.083 to 24 hrs post administration by LC-MS/MS analysis; assay type: ADME, organism-based; conditions: in vivo, time 0.083-24 hrs
# [7] = Drug accumulation in CD-1 mouse liver at 10 mg/kg,po measured at 0.083 to 24 hrs post administration by LC-MS/MS analysis; assay type: ADME, organism-based; conditions: in vivo, time 0.083-24 hrs
# [8] = Tmax in Sprague-Dawley rat at 10 mg/kg,po measured at 0.083 to 24 hrs post administration by LC-MS/MS analysis; assay type: ADME, organism-based; conditions: Sprague-Dawley, in vivo, time 0.083-24 hrs, read-out: Tmax
# [9] = Drug accumulation in Sprague-Dawley rat liver at 10 mg/kg,po measured at 0.083 to 24 hrs post administration by LC-MS/MS analysis; assay type: ADME, organism-based; conditions: in vivo, time 0.083-24 hrs
Vdss(app) [5] [L/kg],Tmax [6] [h],Ct [7] [ng/g],Tmax [8] [h],Ct [9] [ng/g],Compound,Activity [1],Activity [2],Activity (Hepatitis B virus [3]),EC50 (Hepatitis B virus [4]) [nM]
,,,,,COCCCOc1cc2c(nc1OC)-c1cc(=O)c(C(=O)O)cn1[C@H](C(C)C)C2,Non-Toxic,Non-Toxic,Active,3
1.1,4.1,425,2.1,29,COCCCOc1cc2c(cc1Cl)-c1cc(=O)c(C(=O)O)cn1[C@H](C(C)C)CO2,,,,
